Assay results taken from PubChem BioAssay (NCI).
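All cell lines were grown in 96-well plates and treated with compound for 48 hours. Abbreviation: GI50, concentration required for 50% inhibition of growth. Definition used: TGI = concentration required for complete inhibition of growth.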

Key:
Test in all cases: inhibition of tumour cell growth, NCI panel, 48 h
[1] = tested on: LOX IMVI melanoma
[2] = tested on: HT29 colon
[3] = tested on: SR leukemia
[4] = tested on: M14 melanoma
[5] = tested on: UACC-257 melanoma
[6] = tested on: BT-549 breast
[7] = tested on: HOP-62 NSCLC
[8] = tested on: OVCAR-4 ovarian
[9] = tested on: UO-31 renal
[10] = tested on: CCRF-CEM leukemia

| Structure (SMILES) | GI50 [1] | TGI [1] | GI50 [2] | TGI [2] | GI50 [3] | TGI [3] | GI50 [4] | TGI [4] | GI50 [5] | TGI [5] | GI50 [6] | TGI [6] | GI50 [7] | TGI [7] | GI50 [8] | TGI [8] | GI50 [9] | TGI [9] | GI50 [10] | TGI [10] |
| --- | --- | --- | --- | --- | --- | --- | --- | --- | --- | --- | --- | --- | --- | --- | --- | --- | --- | --- | --- | --- |
| Cc1ccc(C=C2C(Cl)=C(Cl)C(Cl)=C2Cl)cc1 | 0.303 µM | 0.959 µM | 0.796 µM | 2.89 µM | 0.166 µM | 0.444 µM | 0.561 µM | 1.66 µM | 1.58 µM | 4.32 µM | 0.882 µM | 3.32 µM | 2.13 µM | 4.44 µM | 1 µM | 2.75 µM | 0.757 µM | 2.18 µM | 0.167 µM | 0.49 µM |
| CCCCNS(=O)(=O)c1n[nH]c(=O)[nH]c1=O | – | > 100 µM | – | > 100 µM | – | > 100 µM | – | > 100 µM | – | – | – | > 100 µM | – | > 100 µM | – | > 100 µM | – | > 100 µM | – | 35.7 µM |
| NC(=S)N/N=C1\c2ccccc2-c2c(F)c(F)c(F)c(F)c21 | 2.34 µM | 7.64 µM | 2.2 µM | 5.07 µM | 0.298 µM | 1.86 µM | 4.53 µM | 15.6 µM | 2.93 µM | 9.38 µM | 4.92 µM | 10.7 µM | 2.71 µM | 6.72 µM | 1.65 µM | 3.52 µM | 4.31 µM | 9.03 µM | 1.09 µM | 3.95 µM |
| O=C(c1ccc(C(F)(F)F)c(Cl)c1)N(Cc1ccc(Cl)cc1)c1ccc(-c2cc(C(F)(F)F)[nH]n2)c(O)c1 | 0.819 µM | 1.5 µM | 1.25 µM | 5.55 µM | 0.983 µM | 2.87 µM | 1.01 µM | 2.43 µM | 1.04 µM | 3.57 µM | 1.31 µM | 3.99 µM | 1.02 µM | 2.33 µM | 1.08 µM | 4.87 µM | 0.717 µM | 1.65 µM | 1.11 µM | 5.33 µM |
| Cn1c(=O)nc2n(-c3ccc(Cl)cc3)c3cc(Cl)ccc3nc-2c1=O | – | 5.84 µM | – | 9.57 µM | – | 29.8 µM | – | 4.21 µM | – | 3.51 µM | – | 7.17 µM | – | 33.2 µM | – | 2.53 µM | – | 24.2 µM | – | 33.2 µM |
| COc1ccc(NC2=C(I)C(=O)c3ncccc3C2=O)cc1 | 0.309 µM | 1.57 µM | 3.07 µM | 10.2 µM | 0.546 µM | 9.61 µM | 1.29 µM | 2.9 µM | 1.35 µM | 2.72 µM | 1.27 µM | 2.59 µM | 0.457 µM | 1.87 µM | 1.12 µM | 2.35 µM | 0.85 µM | 2.21 µM | 2.04 µM | 6.55 µM |
| COc1cc(N2C(=O)[C@H](c3ccccc3)C2c2ccc(SC)cc2)cc(OC)c1OC (some centres undefined) | 0.0352 µM | > 100 µM | 0.0324 µM | 1.76 µM | 0.0411 µM | > 100 µM | – | – | 1.66 µM | > 100 µM | 0.0299 µM | 0.0937 µM | 0.0788 µM | > 100 µM | 0.0545 µM | > 100 µM | 0.738 µM | > 100 µM | 0.0377 µM | > 100 µM |
| C=C1C(=O)O[C@H]2[C@H](OC(C)=O)[C@@H](C)CCCC3(C)OC3CCC3(CO3)[C@H](O)C[C@@H]12 (some centres undefined) | 12.6 µM | 25.2 µM | 3.42 µM | > 100 µM | 0.568 µM | 2.26 µM | 11.1 µM | 23.6 µM | 17.3 µM | 49.9 µM | 11.4 µM | 32 µM | 21.4 µM | 43 µM | 3.77 µM | 53.8 µM | 14.3 µM | 45 µM | 2.44 µM | 7.27 µM |
| O=c1cnnc(N/N=C/c2ccccc2O)[nH]1 | 1.07 µM | > 48.2 µM | 0.646 µM | > 100 µM | 1.51 µM | > 100 µM | 0.449 µM | 19.2 µM | 0.489 µM | 6.8 µM | 6.36 µM | > 100 µM | 6.01 µM | 53.7 µM | 0.264 µM | > 23.8 µM | 1.61 µM | 13.5 µM | 0.396 µM | > 39.9 µM |
| O=C(O)c1cc(=O)cc(C(=O)O)o1 | > 100 µM | > 100 µM | > 100 µM | > 100 µM | > 100 µM | > 100 µM | – | – | > 100 µM | > 100 µM | > 100 µM | > 100 µM | > 100 µM | > 100 µM | > 100 µM | > 100 µM | > 100 µM | > 100 µM | > 100 µM | > 100 µM |
| N#CC(C#N)=C1CCOc2ccc(F)cc21 | 11.7 µM | 23.9 µM | 64.2 µM | > 100 µM | 12.6 µM | 25.2 µM | 19.5 µM | 45.9 µM | > 100 µM | > 100 µM | 53.4 µM | > 100 µM | 13.2 µM | 25.9 µM | 14.6 µM | 27.8 µM | 56.3 µM | > 100 µM | – | – |
| COc1cc(CNCCN2C(=O)c3ccc4c5c(ccc(c35)C2=O)C(=O)N(CCNCc2cc(OC)c(OC)c(OC)c2)C4=O)cc(OC)c1OC | 0.142 µM | 0.421 µM | – | – | 0.0973 µM | 0.311 µM | 0.717 µM | 1.4 µM | – | – | 0.546 µM | 1.22 µM | 0.28 µM | 0.999 µM | 0.122 µM | 0.398 µM | – | – | – | – |
| O=C(O)c1ccc(C(O)(c2ccccc2)c2ccccc2)cc1 | – | > 100 µM | – | – | – | > 100 µM | – | > 100 µM | – | > 100 µM | – | > 100 µM | – | > 100 µM | – | > 100 µM | – | > 100 µM | – | > 100 µM |
| Cc1cnc2oc3ccc(O)cc3c2c1-c1ccccc1 | 21.6 µM | > 100 µM | > 100 µM | > 100 µM | > 100 µM | > 100 µM | > 100 µM | > 100 µM | > 100 µM | > 100 µM | 19.8 µM | 98.8 µM | 27.3 µM | 83.4 µM | > 100 µM | > 100 µM | 51.6 µM | > 100 µM | > 100 µM | > 100 µM |
